Experimental data from US12421238B2, “Selective dihydropyrrolopyrimidine JAK2 inhibitors” (CHENGDU JINRUI FOUNDATION BIOTECH CO., LTD., priority 2019, dated 2025).

Columns and labels:
HEL92.1.7 = HEL92.1.7 cell proliferation experiment (Cell Titer-Glo); format: cell-based; conditions: Homo sapiens, HEL 92.1.7; HEL92.1.7 cells, 72 hours
TF-1 = TF-1 cell proliferation experiment (CellTiter Glo); format: cell-based; conditions: Homo sapiens; TF-1 cells, 72 hours; read-out: TF-1 (μM), proliferation inhibition
[1] = Pharmacokinetic test in SD rats, intragastric administration; format: in vivo; conditions: rat, po, single intragastric administration, 25 mg/kg, plasma; for Cmax: read-out: Blood concentration Cmax; for AUC(0-t): read-out: Curve area AUClast; for half-life: read-out: Half life t1/2 (converted); for Tmax: read-out: Time to peak Tmax
Procedure: SD rats were used as the test animals.
Standard curve and preparation and processing of quality control samples:
Stock solution was diluted with 50% acetonitrile/water solution to obtain standard working solutions of 0.04, 0.10, 0.20, 0.40, 1.00, 2.00, 4.00 μg/mL, and quality control working solutions of 0.10, 1.00, 3.00 μg/mL. 2.50 μL of standard curve working solutions and quality control working solutions were added to 47.5 μL of blank rat plasma, respectively, to obtain standard curve solutions having analyte concentrations of 2.00, 5.00, 10.00, 20.00, 50.00, 100.00, 200.00 ng/mL and quality control samples having concentrations of 5.00, 50.00, and 150.00 ng/mL. 200 μL of acetonitrile (containing 5 ng/mL of the internal standard loratadine) was added. After vortexing for 3 minutes, the solutions were centrifuged at 15000 rpm at 4° C. for 15 minutes. 100 μL of the supernatant was taken for LC-MS/MS analysis. WinNonlin® 8.0 was used to calculate the experimental results.

[2] = Acute toxicity test, single oral administration to ICR mice (MTD); format: in vivo; conditions: ICR, mouse, in vivo, po, read-out: MTD (maximum tolerated dose)
ICR mice = test: as above; format: in vivo
JAK1 = JAK1 (Homo sapiens, UniProt P23458); test: Kinase activity test on JAK1 (Caliper EZ Reader conversion rate)
JAK2 = JAK2 (Homo sapiens, UniProt O60674); test: Kinase activity test on JAK2 (Caliper EZ Reader conversion rate); conditions: for JAK1/JAK2 / JAK3/JAK2: ratio of IC50 values; for JAK1/JAK2: selectivity for JAK2 over JAK1; for JAK3/JAK2: selectivity for JAK2 over JAK3
JAK3 = target: T1, JAK3 (Homo sapiens, UniProt P52333); test: Kinase activity test on JAK3 (Caliper EZ Reader conversion rate)
T1 sequence (P52333 1-1124): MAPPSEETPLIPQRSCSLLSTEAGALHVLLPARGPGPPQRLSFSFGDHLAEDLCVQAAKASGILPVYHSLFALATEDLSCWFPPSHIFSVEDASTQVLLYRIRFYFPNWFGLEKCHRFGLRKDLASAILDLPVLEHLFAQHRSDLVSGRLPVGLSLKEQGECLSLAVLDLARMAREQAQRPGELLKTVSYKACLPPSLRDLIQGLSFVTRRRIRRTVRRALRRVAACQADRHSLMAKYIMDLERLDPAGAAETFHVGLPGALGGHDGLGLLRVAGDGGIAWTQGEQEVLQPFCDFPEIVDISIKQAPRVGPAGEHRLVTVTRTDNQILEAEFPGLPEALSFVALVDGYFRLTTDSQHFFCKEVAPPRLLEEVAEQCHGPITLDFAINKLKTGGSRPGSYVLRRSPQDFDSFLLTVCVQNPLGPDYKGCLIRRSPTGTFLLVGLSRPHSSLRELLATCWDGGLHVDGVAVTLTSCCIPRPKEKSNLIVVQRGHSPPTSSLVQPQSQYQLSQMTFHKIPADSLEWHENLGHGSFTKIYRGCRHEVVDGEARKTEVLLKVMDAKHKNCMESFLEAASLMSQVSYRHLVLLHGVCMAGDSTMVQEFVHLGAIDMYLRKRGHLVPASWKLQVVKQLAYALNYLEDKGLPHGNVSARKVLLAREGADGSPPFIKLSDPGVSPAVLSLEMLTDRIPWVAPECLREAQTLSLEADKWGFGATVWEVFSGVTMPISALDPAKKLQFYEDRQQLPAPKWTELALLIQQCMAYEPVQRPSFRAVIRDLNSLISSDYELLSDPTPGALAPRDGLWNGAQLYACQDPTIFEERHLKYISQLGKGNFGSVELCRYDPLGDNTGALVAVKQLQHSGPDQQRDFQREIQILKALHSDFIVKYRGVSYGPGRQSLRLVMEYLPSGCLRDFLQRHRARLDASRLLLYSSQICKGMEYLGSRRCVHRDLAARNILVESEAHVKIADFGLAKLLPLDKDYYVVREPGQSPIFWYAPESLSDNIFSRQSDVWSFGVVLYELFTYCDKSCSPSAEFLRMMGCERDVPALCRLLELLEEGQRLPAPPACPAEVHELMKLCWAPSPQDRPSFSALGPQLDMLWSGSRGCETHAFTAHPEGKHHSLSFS

Chain of JAK1 (P23458 whole entry): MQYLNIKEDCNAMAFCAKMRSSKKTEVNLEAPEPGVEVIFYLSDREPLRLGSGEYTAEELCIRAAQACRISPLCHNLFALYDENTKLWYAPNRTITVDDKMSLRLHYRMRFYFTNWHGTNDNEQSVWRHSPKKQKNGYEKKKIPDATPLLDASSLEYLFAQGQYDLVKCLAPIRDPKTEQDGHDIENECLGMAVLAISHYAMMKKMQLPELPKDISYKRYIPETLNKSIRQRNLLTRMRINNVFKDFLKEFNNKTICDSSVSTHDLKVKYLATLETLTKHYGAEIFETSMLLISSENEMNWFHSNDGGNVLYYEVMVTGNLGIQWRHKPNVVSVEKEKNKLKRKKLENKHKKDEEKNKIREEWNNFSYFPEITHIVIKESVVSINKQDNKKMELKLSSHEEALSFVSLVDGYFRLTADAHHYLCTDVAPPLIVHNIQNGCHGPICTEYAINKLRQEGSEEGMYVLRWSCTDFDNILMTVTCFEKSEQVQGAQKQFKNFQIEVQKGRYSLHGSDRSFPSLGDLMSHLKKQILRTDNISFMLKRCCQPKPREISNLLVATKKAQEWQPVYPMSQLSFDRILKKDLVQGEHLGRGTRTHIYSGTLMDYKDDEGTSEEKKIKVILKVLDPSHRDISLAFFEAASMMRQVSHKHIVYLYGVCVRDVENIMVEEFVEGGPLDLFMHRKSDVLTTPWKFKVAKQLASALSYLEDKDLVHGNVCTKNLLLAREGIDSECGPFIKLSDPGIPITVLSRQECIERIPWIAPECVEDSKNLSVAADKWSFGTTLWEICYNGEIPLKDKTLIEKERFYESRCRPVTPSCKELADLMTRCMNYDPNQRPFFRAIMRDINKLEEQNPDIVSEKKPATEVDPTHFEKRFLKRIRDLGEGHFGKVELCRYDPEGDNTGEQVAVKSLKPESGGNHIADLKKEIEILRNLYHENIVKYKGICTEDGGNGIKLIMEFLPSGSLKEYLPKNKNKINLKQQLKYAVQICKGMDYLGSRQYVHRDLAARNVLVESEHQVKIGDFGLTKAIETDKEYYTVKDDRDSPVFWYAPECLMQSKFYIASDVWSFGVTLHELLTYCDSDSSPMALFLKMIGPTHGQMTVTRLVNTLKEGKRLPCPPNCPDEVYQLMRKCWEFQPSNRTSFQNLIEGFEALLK
Chain of JAK2 (O60674 whole entry): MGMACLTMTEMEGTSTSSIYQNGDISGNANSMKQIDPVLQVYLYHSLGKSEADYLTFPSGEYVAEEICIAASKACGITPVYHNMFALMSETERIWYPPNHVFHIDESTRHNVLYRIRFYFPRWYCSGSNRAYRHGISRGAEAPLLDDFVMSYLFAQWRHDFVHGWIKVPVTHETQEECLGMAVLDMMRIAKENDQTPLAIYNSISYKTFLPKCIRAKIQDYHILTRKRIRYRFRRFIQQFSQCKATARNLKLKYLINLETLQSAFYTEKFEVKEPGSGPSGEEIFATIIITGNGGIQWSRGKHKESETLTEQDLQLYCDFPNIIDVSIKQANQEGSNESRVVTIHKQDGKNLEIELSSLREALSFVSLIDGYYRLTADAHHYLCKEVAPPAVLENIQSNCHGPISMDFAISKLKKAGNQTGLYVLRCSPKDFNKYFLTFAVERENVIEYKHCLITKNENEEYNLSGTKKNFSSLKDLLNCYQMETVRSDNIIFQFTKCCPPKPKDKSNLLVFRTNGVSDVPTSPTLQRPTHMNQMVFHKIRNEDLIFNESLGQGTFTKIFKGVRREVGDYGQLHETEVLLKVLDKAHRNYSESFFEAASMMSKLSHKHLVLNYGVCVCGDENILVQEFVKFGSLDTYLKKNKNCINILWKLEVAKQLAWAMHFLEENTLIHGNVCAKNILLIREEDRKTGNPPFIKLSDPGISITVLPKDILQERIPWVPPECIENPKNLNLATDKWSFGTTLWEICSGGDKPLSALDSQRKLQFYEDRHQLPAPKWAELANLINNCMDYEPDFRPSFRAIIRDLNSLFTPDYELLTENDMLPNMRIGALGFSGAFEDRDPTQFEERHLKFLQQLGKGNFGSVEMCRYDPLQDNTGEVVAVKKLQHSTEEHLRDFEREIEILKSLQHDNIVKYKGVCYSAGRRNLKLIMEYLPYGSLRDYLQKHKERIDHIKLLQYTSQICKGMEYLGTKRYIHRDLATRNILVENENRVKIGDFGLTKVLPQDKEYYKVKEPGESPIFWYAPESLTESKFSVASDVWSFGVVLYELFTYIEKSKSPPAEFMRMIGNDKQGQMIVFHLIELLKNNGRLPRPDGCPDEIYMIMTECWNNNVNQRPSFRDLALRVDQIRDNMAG

IC50 (JAK1) [nM]	IC50 (JAK2) [nM]	JAK1/JAK2 (JAK2)	JAK3/JAK2 (JAK2)	IC50 (JAK3) [nM]	Structure (SMILES)	IC50 (HEL92.1.7) [µM]	IC50 (TF-1) [µM]	Cmax [1] [ng/mL]	AUC(0-t) [1] [ng·h/mL]	half-life [1] [h]	Tmax [1] [h]	MTD at 6 days [2] [mg/kg]	MTD (maximum tolerated dose) (ICR mice) [mg/kg]
191	1.7	112	782	1330	CC(C)(C)NS(=O)(=O)c1cccc(N2CCc3cnc(Nc4ccc(CN5CCS(=O)(=O)CC5)cc4)nc32)c1 [Compound I-9]	0.17	0.21	–	–	–	–	–	–
97	0.75	129	1187	890	CC(C)(C)NS(=O)(=O)c1cccc(N2CCc3cnc(Nc4ccc(OCCN5CCS(=O)(=O)CC5)cc4)nc32)c1 [Compound I-6]	0.35	0.15	–	–	–	–	–	–
98	0.7	140	1256	879	CN1CCN(Cc2ccc(Nc3ncc4c(n3)N(c3cccc(S(=O)(=O)NC(C)(C)C)c3)CC4)cc2)CC1 [Compound I-12]	0.22	0.2	–	–	–	–	–	–
105	0.6	175	1455	873	CC(C)(C)NS(=O)(=O)c1cccc(N2CCc3cnc(Nc4ccc(CN5CCCC5)cc4)nc32)c1 [Compound I-22]	0.24	0.22	–	–	–	–	–	–
221	2.2	100	709	1560	CC(C)(C)NS(=O)(=O)c1cccc(N2CCc3cnc(Nc4ccc(N5CCOCC5)cc4)nc32)c1 [Compound I-17]	0.25	0.14	–	–	–	–	–	–

The next lines start with the compound.

Structure (SMILES)	IC50 (JAK1) [nM]	IC50 (JAK2) [nM]	JAK1/JAK2 (JAK2)	JAK3/JAK2 (JAK2)	IC50 (JAK3) [nM]	IC50 (HEL92.1.7) [µM]	IC50 (TF-1) [µM]	Cmax [1] [ng/mL]	AUC(0-t) [1] [ng·h/mL]	half-life [1] [h]	Tmax [1] [h]	MTD at 6 days [2] [mg/kg]	MTD (maximum tolerated dose) (ICR mice) [mg/kg]
CC(C)(C)NS(=O)(=O)c1cccc(N2CCc3cnc(Nc4ccc(C5CCNCC5)cc4)nc32)c1 [Compound I-20]	130	1	130	1433	1430	0.25	0.19	1030	912	6.3	2	> 2000	>2000
Cc1cnc(Nc2ccc(OCCN3CCCC3)cc2)nc1Nc1cccc(S(=O)(=O)NC(C)(C)C)c1 [Fedratinib, reference compound]	–	–	–	–	–	0.58	1.57	579	559	4	1.5	250	–
CC(C)(C)NS(=O)(=O)c1cccc(N2CCc3cnc(Nc4ccc(N5CCNCC5)cc4)nc32)c1 [Compound I-16]	203	2	101	695	1390	0.21	0.15	–	–	–	–	–	–
CC(C)(C)NS(=O)(=O)c1cccc(N2CCc3cnc(Nc4ccc(CC5CCOCC5)cc4)nc32)c1 [Compound I-10]	100	0.5	200	1974	987	0.2	0.19	–	–	–	–	–	–
